EC50 data for one molecule are collected here from US20050221285A1, “Method for identifying or screening anti-viral agents” (priority 2001, published 2005).

This experiment deals with RSV Long wild type. Description: Assay for compounds active against RSV (HEp2 cells, MTT cell viability). The settings on record: human respiratory syncytial virus, HEp-2.

In brackets after ≈: the same amount, converted by molar mass.

Procedure: Graded concentrations of test compounds were prepared by serial dilution in 96 well tissue culture plates containing 100 μL per well of assay media (Eagles Minimal Essential Medium (MEM) supplemented with 2% foetal bovine serum and Glutamine alanyl-L-glutamine). […] 1.5×10^4 of the diluted cells were added to several individual wells of each 96 well plate which were designated uninfected control wells. The remaining cell suspension was exposed to infectious RSV by addition of sufficient virus to the suspension to yield a concentration of 0.4 plaque forming units per cell. The cell-virus suspension was mixed well by inversion and 100 μL immediately dispensed into the remaining wells of the 96 well plates. Assay plates were incubated in a 37° C. incubator for 5 days. Viral replication was quantified by determination of cell viability substantially as described by Watanabe and colleagues (Watanabe, W. et al., J. Virol. Methods, 48: 257-265, 1994). Briefly, 100 μL of 3 mg/mL MTT (3(4,5-dimethylthiazol-2-yl)-2,5-diphenyltetrazolium bromide) was added to each well and plates incubated at 37° C. in a 5% CO2 incubator for 2 hours. […] The extent of metabolism was measured via determination of absorbance using a computer-controlled microplate reader at 540 nm with a reference wavelength of 690 nm. […]

In the case of `NC(=O)c1ncn(C2O[C@H](CO)[C@@H](O)[C@H]2O)n1` (stereo partly drawn) [Ribavirin, 1-D-ribofuranosyl-1H-1,2,4-triazole-3-carboxamide], the concentration giving a half-maximal response (EC50) came to 5.54 µg/mL (≈ 22.7 µM).
